Data: patent publication US20240100058A1, “METHOD FOR SELECTING, ASSESSING, OR PRODUCING SODIUM LAURYL SULFATE AS RAW MATERIAL FOR PHARMACEUTICAL FORMULATION, OR FORMULATION OR THE LIKE CONTAINING SAME” (Chugai Seiyaku Kabushiki Kaisha, priority 2019, published 2024)

Tests used:
Type in all cases: physicochemical
[1] = X-ray powder diffraction of sodium lauryl sulfate lots after storage under accelerated condition; settings: for storage period in which XRPD peaks of sodium lauryl sulfate-dodecanol complex were observed: 70° C., relative humidity about 10% (saturated LiCl), open system, stored up to day 11; for storage period at which new XRPD peaks (2θ around 4.9° and 7.4°) were first detected: airtight system, up to 4 days
Method: Samples (appropriate amount) of different lots, Lot 1 (production date: 2015.12.22) and Lot 2 (production date: 2017.3.10)) of sodium lauryl sulfate, which were obtained from a single manufacturer and produced on different days, were placed in glass vials and stored in an airtight system under condition 1A (temperature 60° C.) and condition 1B (temperature 70° C.). Samples before storage, stored for 3 days and 4 day were subjected to X-ray powder diffraction (XRPD). Measurement was performed in the conditions shown below.
X-ray powder diffraction method: • Measuring device: X′Pert-Pro MPD (manufactured by PANalytical) • Anti-cathode: Cu • Tube voltage: 45 kV • Tube current: 40 mA • Step width: 0.02 • Scan axis: 20 • Sampling time per step: 43 seconds • Scan range: 3 to 40°
(§1) A sample of sodium lauryl sulfate (about 250 mg) was placed in a glass vial and stored in an open system at a temperature of 70° C. and a relative humidity of about 10% (a saturated aqueous solution of LiCl). Samples of before storage, stored for a single day, 2 days, 3 days, 4 days, 7 days and 11 days were subjected to X-ray powder diffraction performed in the conditions of Example 1.

[2] = Sulfate ion quantification by ion chromatography in sodium lauryl sulfate after accelerated storage; settings: for sulfate ion concentration in sample solution: after 4-day storage at 70° C., relative humidity about 10%, about 5 mg sample in 50 mL water
Method: as §1
Sulfate ions generated by decomposition of sodium lauryl sulfate in the samples of Lot 1 and Lot 2 after 4-day storage were quantified by ion chromatography shown below.
Sodium lauryl sulfate (about 5 mg) was weighed and water was added up to 50 mL. The solution was irradiated with ultrasonic wave for 15 minutes and filtered by a membrane filter (DISMIC-25HP PTFE 0.45 μm HYDROPHILIC, manufactured by ADVANTEC). The filtrate was passed through a solid-phase extraction cartridge (Dionex OnGuard II RP, manufactured by ThermoFisher Scientific) washed and the eluate was used as a sample solution. Separately, solutions having a sulfate ion concentration of 1 mg/L, 2 mg/L, 3 mg/L, 4 mg/L and 5 mg/L were prepared by use of the sulfate ion standard solution (1 g/L, manufactured by Wako Pure Chemical Industries Ltd.) for ion chromatography and used as the standard solutions. […]
The concentration of sulfate ion in a sample solution was calculated based on the calibration curve prepared by using the standard solutions.
Sodium lauryl sulfate is usually stored at room temperature; however, there are possible cases, e.g., transportation, where it is stored at a higher temperature than room temperature. […] After storage, sulfate ions generated by decomposition of sodium lauryl sulfate in the sample were quantified by ion chromatography shown in Example 4.

[3] = X-ray powder diffraction of sodium lauryl sulfate lots after storage under accelerated condition; settings: for storage period at which new XRPD peaks were first detected: open system, sulfate
[4] = condition 2A: 70° C., relative humidity about 79% (saturated NaCl)
[5] = condition 2B: 70° C., relative humidity about 10% (saturated LiCl), up to 6 days

storage period in which XRPD peaks of sodium lauryl sulfate-dodecanol complex were observed [1] | storage period at which new XRPD peaks (2θ around 4.9° and 7.4°) were first detected ([1]; condition 1A: 60° C.) | storage period at which new XRPD peaks (2θ around 4.9° and 7.4°) were first detected ([1]; condition 1B: 70° C.) | sulfate ion concentration in sample solution [2] | storage period at which new XRPD peaks were first detected [3, 4] | storage period at which new XRPD peaks were first detected [3, 5] | sulfate ion concentration detected by ion chromatography ([2]; prior storage under Conditions 1-17 of Table 1 (30-40° C. 45 days plus up to 48 hours at up to 60° C.), then 70° C., about 10% RH, 4 days) | physical state of sample after storage ([3]; condition 2A: 70° C., relative humidity about 79%, 2-days and 3-days storage) | Structure (SMILES)
> 11 days | > 4 days | > 4 days | ≤ 1 mg/L | 3 days | > 6 days | – | – | CCCCCCCCCCCCOS(=O)(=O)[O-].[Na+] [Lot 2, sodium lauryl sulfate]
– | – | – | – | – | – | ≤ 1 mg/L | – | CCCCCCCCCCCCOS(=O)(=O)[O-].[Na+] [Lot 5, sodium lauryl sulfate]
≥ 3 days | 4 days | 3 days | 24.1 mg/L | 1 days | 3 days | – | changed to a liquid state | CCCCCCCCCCCCOS(=O)(=O)[O-].[Na+] [Lot 1, sodium lauryl sulfate]
